From the supplement of paper PMC10307832

Tests used:
Assay in all cases: relative viability (nuclei count vs DMSO), 5 days (fraction); higher = more cells survive
Sulindac + Trametinib = compound: CC1=C(CC(=O)O)c2cc(F)ccc2/C1=C\c1ccc([S+](C)[O-])cc1 [Sulindac] + CC(=O)Nc1cccc(-n2c(=O)n(C3CC3)c(=O)c3c(Nc4ccc(I)cc4F)n(C)c(=O)c(C)c32)c1 [Trametinib] (partner 0.02 µM)
How it was run: (§1)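 Relative viability was taken as the ratio of nuclei in treated wells to nuclei in vehicle wells. Lung cancer cell lines in 1536-well plates received compounds by pin tool one day after seeding, either one drug alone or a fixed anchor-drug dose plus five library-drug doses (not always all listed) in √10 steps. Nuclei were counted on 4× images after 5 days of treatment, and values are medians of duplicate plates.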

Sulindac + Tozasertib = compound: CC1=C(CC(=O)O)c2cc(F)ccc2/C1=C\c1ccc([S+](C)[O-])cc1 [Sulindac] + Cc1cc(Nc2cc(N3CCN(C)CC3)nc(Sc3ccc(NC(=O)C4CC4)cc3)n2)n[nH]1 [Tozasertib] (partner 0.1 µM)
How it was run: as §1

Sulindac + Foretinib = compound: CC1=C(CC(=O)O)c2cc(F)ccc2/C1=C\c1ccc([S+](C)[O-])cc1 [Sulindac] + COc1cc2c(Oc3ccc(NC(=O)C4(C(=O)Nc5ccc(F)cc5)CC4)cc3F)ccnc2cc1OCCCN1CCOCC1 [Foretinib] (partner 0.25 µM)
How it was run: as §1

[1] = compound: O=c1[nH]cc(F)c(=O)[nH]1 [5-Fluorouracil] + COc1cc2c(Oc3ccc(NC(=O)C4(C(=O)Nc5ccc(F)cc5)CC4)cc3F)ccnc2cc1OCCCN1CCOCC1 [Foretinib] (partner 0.25 µM)
How it was run: as §1

| Cell Line | relative viability (Sulindac + Trametinib; first compound 0.08 µM) | relative viability (Sulindac + Trametinib; first compound 0.253 µM) | relative viability (Sulindac + Trametinib; first compound 0.8 µM) | relative viability (Sulindac + Trametinib; first compound 2.53 µM) | relative viability (Sulindac + Trametinib; first compound 8 µM) | relative viability (Sulindac + Tozasertib; first compound 0.08 µM) | relative viability (Sulindac + Tozasertib; first compound 0.253 µM) | relative viability (Sulindac + Tozasertib; first compound 0.8 µM) | relative viability (Sulindac + Tozasertib; first compound 2.53 µM) | relative viability (Sulindac + Tozasertib; first compound 8 µM) | relative viability (Sulindac + Foretinib; first compound 0.08 µM) | relative viability (Sulindac + Foretinib; first compound 0.253 µM) | relative viability (Sulindac + Foretinib; first compound 0.8 µM) | relative viability (Sulindac + Foretinib; first compound 2.53 µM) | relative viability (Sulindac + Foretinib; first compound 8 µM) | relative viability ([1]; first compound 0.02 µM) | relative viability ([1]; first compound 0.2 µM) | relative viability ([1]; first compound 0.6325 µM) | relative viability ([1]; first compound 2 µM) |
| --- | --- | --- | --- | --- | --- | --- | --- | --- | --- | --- | --- | --- | --- | --- | --- | --- | --- | --- | --- |
| NCI-H2170 | 1.24 | 0.938 | 0.83 | 0.936 | 0.946 | 0.791 | 0.928 | 0.797 | 0.675 | 0.719 | 1.1 | 0.547 | 1.05 | 0.978 | 1.01 | 1 | 0.872 | 0.537 | 0.44 |
| HCC-366 | 0.359 | 0.384 | – | 0.357 | 0.396 | 0.104 | 0.148 | 0.199 | 0.111 | 0.198 | 0.838 | 0.964 | 0.999 | 0.994 | 0.998 | 0.955 | 0.732 | 0.43 | 0.217 |
| NCI-H2405 | 0.687 | 0.668 | 0.581 | 0.634 | 0.731 | 0.733 | 0.795 | 0.684 | 0.793 | 0.751 | 1.03 | 1.08 | 0.981 | 1.03 | 1.09 | 1 | 1.13 | 1.01 | 1.02 |
| COR-L 105 | 0.374 | 0.472 | 0.445 | 0.45 | 0.449 | 0.291 | 0.349 | 0.348 | 0.373 | 0.391 | 0.871 | 0.904 | 1.18 | 0.783 | 1.44 | 1.2 | 1.14 | 0.929 | 0.595 |
| 201T | 0.763 | 0.732 | 0.717 | 0.695 | 0.712 | 1.08 | 0.94 | 0.957 | 0.94 | 0.98 | 1.1 | 1.08 | – | – | 1.22 | 1.18 | 0.509 | 0.211 | 0.176 |
| NCI-H2228 | 0.621 | 0.675 | 0.5 | 0.523 | 0.364 | 0.222 | 0.248 | 0.242 | 0.294 | 0.262 | 1.02 | 1.07 | 0.773 | 0.751 | 0.899 | 0.981 | 0.808 | 0.625 | 0.343 |
| LC-2-ad | 1.02 | 1.01 | 0.769 | 0.928 | 0.915 | 0.382 | 0.451 | 0.374 | 0.391 | 0.46 | 0.855 | 1.01 | 0.877 | 0.872 | 1.02 | 0.979 | 0.663 | 0.414 | 0.339 |
| NCI-H2087 | 0.217 | 0.205 | 0.158 | 0.207 | 0.224 | 0.237 | 0.284 | – | 0.293 | 0.233 | 1.44 | 1.1 | – | 1.22 | 1.29 | 1.27 | 1.05 | 0.628 | 0.519 |
| NCI-H358 | 0.132 | 0.132 | 0.128 | 0.114 | 0.14 | 0.112 | 0.0982 | 0.104 | 0.0899 | 0.102 | 0.85 | 0.763 | 0.572 | 0.621 | 0.826 | 0.71 | 0.918 | 0.657 | 0.308 |
| H3255 | 0.635 | 0.661 | 0.509 | 0.699 | 0.656 | 0.593 | 0.546 | 0.413 | 0.616 | 0.619 | 0.962 | 0.853 | 0.678 | 0.879 | 0.827 | 0.861 | 1.08 | 0.872 | 0.656 |
| NCI-H23 | 0.39 | 0.403 | 0.333 | 0.364 | 0.356 | 0.292 | – | 0.323 | 0.354 | 0.535 | 0.879 | – | 0.782 | 0.607 | 1.03 | 1.08 | 0.825 | 0.52 | 0.431 |
| CAL-12T | 0.285 | 0.357 | 0.343 | 0.312 | 0.361 | 0.253 | 0.282 | 0.322 | 0.301 | 0.365 | 1.22 | 1.22 | 0.911 | 1.12 | 1.27 | 1.21 | 1.21 | 1.07 | 0.434 |
| A-427 | 0.685 | 0.709 | 0.732 | 0.673 | 0.848 | 0.176 | 0.198 | 0.193 | 0.177 | 0.206 | 1.08 | 1.05 | 0.979 | 1.17 | 1.02 | 0.961 | 1.19 | 1.08 | 0.625 |
| HARA | 0.516 | 0.926 | 0.777 | 0.715 | 0.735 | 0.0822 | 0.0844 | 0.121 | 0.0886 | 0.103 | 1.28 | 1.05 | 0.991 | 0.819 | 1.1 | 0.884 | 0.855 | 0.875 | 0.713 |
| NCI-H1793 | 0.352 | 0.497 | – | 0.497 | 0.481 | 0.283 | 0.283 | 0.349 | 0.33 | 0.336 | 0.759 | 0.808 | 0.54 | 0.748 | 0.736 | 0.683 | 0.674 | 0.57 | 0.406 |
| NCI-H1623 | – | – | – | – | – | 0.392 | 0.458 | 0.421 | 0.418 | 0.429 | 0.875 | 0.779 | 0.637 | 0.873 | 0.923 | 0.567 | 0.35 | 0.306 | 0.259 |
| NCI-H2023 | 0.62 | 0.543 | 0.427 | 0.493 | 0.716 | 0.558 | 0.365 | 0.322 | 0.3 | 0.41 | 0.969 | 0.867 | 0.715 | 0.821 | 1.07 | 0.757 | 0.243 | 0.159 | 0.0994 |
